Assay results taken from patent US5192791A, “Fused ring heterocycles and pharmaceutical compositions containing same” (Biofor, Ltd., priority 1990, dated 1993).

Assays:
[1] = tested on: Mycobacterium butyricum adjuvant arthritis, hind paw edema; assay: Adjuvant Arthritis Assay: Developing (hind paw edema, rats); type: in vivo, female Lewis rats; conditions: 96 h, dosed once daily for 4 days in 0.25% methylcellulose, paw edema on fifth day
Procedure: Anti-Inflammatory: This activity was evaluated via a modification of the Adjuvant Arthritis Assay (AA) described by S. […] This assay measures the ability of the test compound to antagonize local edema, a characteristic of the inflammatory response. […] The left and right rear paws of female Lewis rats (Charles River Laboratories) weighing 160-180 grams each were measured by mercury displacement prior to injection (Day Zero). Adjuvant arthritis was induced in this rat colony by subcutaneous injection of Mycobacterium butyricum (0.75 mg in 0.1 ml light mineral oil, Fisher) using an automated Cornwall syringe. On days 11-15 post-adjuvant the injected animals with 0.25 to 0.75 ml. paw edema were selected and distributed evenly, according to edema size, into control and experimental groups of ten rats each. Vehicle control and drug treatments were assigned to the groups at random. The assay was performed using a variable dose level for each test compound per kilogram per day in 0.25% methylcellulose vehicle. All animals were dosed once daily for 4 days and on the fifth day both hind paw volumes were again measured using mercury displacement. The hind paw edema was determined for each rat by subtracting the hind paw volume measured on Day Zero from the hind paw volume measured on the fifth day of the study. Group means were determined and the drug effect was calculated as percent inhibition of the hind paw edema according to the following equation: [formula] […] The known anti-inflammatory NAPROXEN was also tested for comparison purposes.

yeast-induced fever = assay: Antipyretic Evaluation (yeast-induced fever in rats); type: in vivo, male Sprague-Dawley rats; conditions: 300 mg/kg, oral, 19 hours after yeast; temperature one hour after dosing
Procedure: Antipyretic: This activity was evaluated by creating a yeast-induced fever in rats according to a modified method of the procedure described by Loux et al in "Toxicology and Applied Pharmacology", Vol. 22: page 672 (1972). In this assay rats injected with yeast in distilled water were dosed with test compounds, aspirin (positive control) and a vehicle (negative control) and the observed differences in body temperature were analyzed statistically.
Antipyretic activity was evaluated using a modification of the test described by Loux et al, in Toxicology and Applied Pharmacology, 22:672 (1972), that is, yeast-induced fever in rats. Each test group consisted of ten male Sprague-Dawley rats (Charles River Laboratories), weighing 180-225 grams each. Eighteen hours prior to compound administration the rats were weighed and body temperatures were recorded. Food was removed with water available ad libitum. […]
Test compounds suspended in 0.25% methylcellulose (0.25% MC) or olive oil were administered orally by gavage nineteen hours following the yeast injection. Body temperatures were taken and recorded one hour after compound administration. […] The mean temperature of the compound-treated groups, positive control group (Aspirin) and negative control group (vehicle) were calculated at 18 hours and 20 hours. The data was analyzed statistically using a paired-samples Student's t-Test.

[2] = tested on: Mycobacterium butyricum adjuvant arthritis, hind paw edema; assay: Adjuvant Arthritis Assay; Immunomodulatory; type: in vivo, Lewis female rats; conditions: 50 mg/kg, oral, Day 5 to 9; edema on Day 15
Procedure: Immunomodulatory: This activity was determined by using a Modified Adjuvant Assay procedure in which female rats were injected with Mycobacterium butyricum to induce hind paw edema. The test compounds were administered orally and the difference in volume between dosed and non-dosed paws was determined.
Lewis female rats were injected in the tail subcutaneously with Mycobacterium butyricum (0.75 mg in 0.1 ml light mineral oil, Fisher) on Day Zero. Prior to injection the volumes of the left and right rear paws were measured by mercury displacement. All rats were dosed orally with vehicle or test compounds on Day 5 to 9 inclusive. The volume of both hind paws were determined on Day 15 and the percent inhibitions were calculated based upon average edema on Day 15 relative to the edema mean in the control group.

Work on `COc1ccc2cc([C@H](C)C(=O)O)ccc2c1` [NAPROXEN, reference compound] yielded an ED50 [1] of 28 mg/kg.
`CC(=O)Oc1ccccc1C(=O)O` [Aspirin, reference compound] was tested, and the “Change in Temperature, 18-20 Hour Period” value (yeast-induced fever) was -2.05 °C.
In the case of `CC(C)(C)c1cc(N2CCCC2=O)cc(C(C)(C)C)c1O` [Example 1, 1-(3,5-di-tert-butyl-4-hydroxyphenyl)pyrrolidin-2-one], the ED50 [1] is reported as 21 mg/kg, the “% Inhibition” value [2] is reported as 39% and the “Change in Temperature, 18-20 Hour Period” value (yeast-induced fever) is reported as -1.55 °C.
Work on `CC(C)(C)c1cc(N2CCCCC2=O)cc(C(C)(C)C)c1O` [Example 2, 1-(3,5-di-tert-butyl-4-hydroxyphenyl)piperidin-2-one] yielded an ED50 [1] of 34 mg/kg.
